{"source": "ChEMBL document CHEMBL1122447", "about": "“2-Acetylpyridine thiosemicarbazones. 5. 1-[1-(2-Pyridyl)ethyl]-3-thiosemicarbazides as potential antimalarial agents” (1983)", "key": {"Plasmodium berghei [1]": {"test_system": "Plasmodium berghei", "experiment": "Antimalarial activity against Plasmodium berghei infected mice (Mus musculus) at 20 mg/kg; toxic in 1 of 5", "assay_type": "functional, organism-based", "design": "dose 20 mg/kg"}, "Plasmodium berghei [2]": {"test_system": "Plasmodium berghei", "experiment": "Increased mean survival time in drug-sensitive Plasmodium berghei infected mice (Mus musculus) at 160 mg/kg; cured 1 of 5", "assay_type": "functional, organism-based", "design": "dose 160 mg/kg"}, "Plasmodium berghei [3]": {"test_system": "Plasmodium berghei", "experiment": "Increased mean survival time in drug-sensitive Plasmodium berghei infected mice (Mus musculus) at 5 mg/kg; cured 2 of 5", "assay_type": "functional"}, "Plasmodium berghei [4]": {"test_system": "Plasmodium berghei", "experiment": "Antimalarial activity against Plasmodium berghei infected mice (Mus musculus) at 640 mg/kg; toxic in 5 of 5", "assay_type": "functional, organism-based", "design": "dose 640 mg/kg"}, "Plasmodium berghei [5]": {"test_system": "Plasmodium berghei", "experiment": "Antimalarial activity against Plasmodium berghei infected mice (Mus musculus) at 40 mg/kg; toxic in 5 of 5", "assay_type": "functional, organism-based", "design": "dose 40 mg/kg"}, "Plasmodium berghei [6]": {"test_system": "Plasmodium berghei", "experiment": "Increased MST in drug-sensitive Plasmodium berghei infected mice (Mus musculus) at 10 mg/kg; […]", "assay_type": "functional, organism-based", "design": "dose 10 mg/kg"}, "Plasmodium berghei [7]": {"test_system": "Plasmodium berghei", "experiment": "Antimalarial activity against Plasmodium berghei infected mice (Mus musculus) at 160 mg/kg; toxic in 3 of 5", "assay_type": "functional, organism-based", "design": "dose 160 mg/kg"}, "Plasmodium berghei [8]": {"test_system": "Plasmodium berghei", "experiment": "Increased mean survival time in drug-sensitive Plasmodium berghei infected mice (Mus musculus) at 40 mg/kg; cured 1 of 5", "assay_type": "functional, organism-based", "design": "dose 40 mg/kg"}, "Plasmodium berghei [9]": {"test_system": "Plasmodium berghei", "experiment": "Increased mean survival time in drug-sensitive Plasmodium berghei infected mice (Mus musculus) at 160 mg/kg; cured 4 of 5", "assay_type": "functional, organism-based", "design": "dose 160 mg/kg"}, "Plasmodium berghei [10]": {"test_system": "Plasmodium berghei", "experiment": "Antimalarial activity against Plasmodium berghei infected mice (Mus musculus) at 160 mg/kg; toxic in 5 of 5", "assay_type": "functional, organism-based", "design": "dose 160 mg/kg"}, "Plasmodium berghei [11]": {"test_system": "Plasmodium berghei", "experiment": "Increased mean survival time in drug-sensitive Plasmodium berghei infected mice (Mus musculus) at 40 mg/kg dose", "assay_type": "functional"}, "Plasmodium berghei [12]": {"test_system": "Plasmodium berghei", "experiment": "Increased mean survival time in drug-sensitive Plasmodium berghei infected mice (Mus musculus) at 640 mg/kg; toxic in 5 of 5", "assay_type": "functional, organism-based", "design": "dose 640 mg/kg"}, "Plasmodium berghei [13]": {"test_system": "Plasmodium berghei", "experiment": "Increased mean survival time in drug-sensitive Plasmodium berghei infected mice (Mus musculus) at 40 mg/kg; cured 3 of 5", "assay_type": "functional, organism-based", "design": "dose 40 mg/kg"}, "Plasmodium berghei [14]": {"test_system": "Plasmodium berghei", "experiment": "Increased mean survival time in drug-sensitive Plasmodium berghei infected mice (Mus musculus) at 160 mg/kg; toxic in 5 of 5", "assay_type": "functional, organism-based", "design": "dose 160 mg/kg"}, "Plasmodium berghei [15]": {"test_system": "Plasmodium berghei", "experiment": "Increased mean survival time in drug-sensitive Plasmodium berghei infected mice (Mus musculus) at 160 mg/kg; toxic in 1 of 5", "assay_type": "functional, organism-based", "design": "dose 160 mg/kg"}, "Plasmodium berghei [16]": {"test_system": "Plasmodium berghei", "experiment": "Increased mean survival time in drug-sensitive Plasmodium berghei infected mice (Mus musculus) at 640 mg/kg dose", "assay_type": "functional"}, "Plasmodium berghei [17]": {"test_system": "Plasmodium berghei", "experiment": "Increased mean survival time in drug-sensitive Plasmodium berghei infected mice (Mus musculus) at 320 mg/kg; toxic in 4 of 5", "assay_type": "functional, organism-based", "design": "dose 320 mg/kg"}, "Plasmodium berghei [18]": {"test_system": "Plasmodium berghei", "experiment": "Increased mean survival time in drug-sensitive Plasmodium berghei in mice (Mus musculus) at 80 mg/kg dose", "assay_type": "functional"}, "Plasmodium berghei [19]": {"test_system": "Plasmodium berghei", "experiment": "Increased mean survival time in drug-sensitive Plasmodium berghei infected mice (Mus musculus) at 20 mg/kg dose", "assay_type": "functional"}, "Plasmodium berghei [20]": {"test_system": "Plasmodium berghei", "experiment": "Antimalarial activity against Plasmodium berghei infected mice (Mus musculus) at 160 mg/kg; cured 1 of 5", "assay_type": "functional, organism-based", "design": "dose 160 mg/kg"}, "Plasmodium berghei [21]": {"test_system": "Plasmodium berghei", "experiment": "Increased mean survival time in drug-sensitive Plasmodium berghei infected mice (Mus musculus) at 160 mg/kg; cured 2 of 5", "assay_type": "functional, organism-based", "design": "dose 160 mg/kg"}, "Plasmodium berghei [22]": {"test_system": "Plasmodium berghei", "experiment": "Increased mean survival time in drug-sensitive Plasmodium berghei infected mice (Mus musculus) at 320 mg/kg; cured 4 of 5"}, "Plasmodium berghei [23]": {"test_system": "Plasmodium berghei", "experiment": "Increase in mean survival time in drug-sensitive Plasmodium berghei infected mice (Mus musculus) at 160 mg/kg dose", "assay_type": "functional"}, "Plasmodium berghei [24]": {"test_system": "Plasmodium berghei", "experiment": "Increased mean survival time in drug-sensitive Plasmodium berghei infected mice (Mus musculus) at 640 mg/kg; toxic in 2 of 5", "assay_type": "functional"}, "Plasmodium berghei [25]": {"test_system": "Plasmodium berghei", "experiment": "Increased mean survival time in drug-sensitive Plasmodium berghei infected mice (Mus musculus) at 640 mg/kg; cured 2 of 5", "assay_type": "functional, organism-based", "design": "dose 640 mg/kg"}, "Plasmodium berghei [26]": {"test_system": "Plasmodium berghei", "experiment": "Increased mean survival time in drug-sensitive Plasmodium berghei infected mice (Mus musculus) at 320 mg/kg; cured 2 of 5", "assay_type": "functional, organism-based", "design": "dose 320 mg/kg"}}}
{"smiles": "CC(N/N=C(\\S)N1CC2CCC(CC2)C1)c1ccccn1", "note": "(stereo not given)", "values": [{"measurement": "Survival time", "setting": "Plasmodium berghei [1]", "value": "Cured 4 of 5 mice; toxic in 1 of 5 mice"}, {"measurement": "Survival time", "setting": "Plasmodium berghei [2]", "value": "Cured 1 of 5 mice"}, {"measurement": "Survival time", "setting": "Plasmodium berghei [3]", "value": 7.9, "unit": "days"}, {"measurement": "Survival time", "setting": "Plasmodium berghei [4]", "value": "Toxic in 5 of 5 mice"}, {"measurement": "Survival time", "setting": "Plasmodium berghei [5]", "value": "Toxic in 5 of 5 mice"}, {"measurement": "Survival time", "setting": "Plasmodium berghei [6]", "value": "Cured 2 of 5 mice"}, {"measurement": "Survival time", "setting": "Plasmodium berghei [7]", "value": "Toxic in 3 of 5 mice"}]}
{"smiles": "CC(N/N=C(\\S)N1CCC(c2ccccc2)CC1)c1ccccn1", "note": "(stereo not given)", "values": [{"measurement": "Survival time", "setting": "Plasmodium berghei [8]", "value": "Cured 1 of 5 mice"}, {"measurement": "Survival time", "setting": "Plasmodium berghei [9]", "value": "Cured 4 of 5 mice"}, {"measurement": "Survival time", "setting": "Plasmodium berghei [4]", "value": "Toxic in 5 of 5 mice"}]}
{"smiles": "CC(N/N=C(\\S)N1CCCCCC1)c1ccccn1", "note": "(stereo not given)", "values": [{"measurement": "Survival time", "setting": "Plasmodium berghei [10]", "value": "Toxic in 5 of 5 mice"}, {"measurement": "Survival time", "setting": "Plasmodium berghei [11]", "value": 2.4, "unit": "days"}, {"measurement": "Survival time", "setting": "Plasmodium berghei [4]", "value": "Toxic in 5 of 5 mice"}]}
{"smiles": "C/C(=N\\N=C(/S)N1CCC(C)CC1)c1ccccn1", "values": [{"measurement": "Survival time", "setting": "Plasmodium berghei [12]", "value": "Toxic in 5 of 5 mice"}, {"measurement": "Survival time", "setting": "Plasmodium berghei [13]", "value": "Cured 3 of 5 mice"}, {"measurement": "Survival time", "setting": "Plasmodium berghei [14]", "value": "Toxic in 5 of 5 mice"}]}
{"smiles": "CC(N/N=C(\\[SeH])N1CC2CCC(CC2)C1)c1ccccn1", "note": "(stereo not given)", "values": [{"measurement": "Survival time", "setting": "Plasmodium berghei [15]", "value": "Cured 2 of 5 mice"}, {"measurement": "Survival time", "setting": "Plasmodium berghei [16]", "value": -0.3, "unit": "days"}, {"measurement": "Survival time", "setting": "Plasmodium berghei [17]", "value": "Cured 4 of 5 mice; toxic in 1 of 5 mice"}, {"measurement": "Survival time", "setting": "Plasmodium berghei [11]", "value": 0.5, "unit": "days"}, {"measurement": "Survival time", "setting": "Plasmodium berghei [18]", "value": 5.5, "unit": "days"}, {"measurement": "Survival time", "setting": "Plasmodium berghei [19]", "value": -0.3, "unit": "days"}]}
{"smiles": "CC(N/N=C(\\S)N1CCCC1)c1ccccn1", "note": "(stereo not given)", "values": [{"measurement": "Survival time", "setting": "Plasmodium berghei [20]", "value": "Cured 1 of 5 mice"}, {"measurement": "Survival time", "setting": "Plasmodium berghei [11]", "value": 5.2, "unit": "days"}, {"measurement": "Survival time", "setting": "Plasmodium berghei [19]", "value": 1.3, "unit": "days"}, {"measurement": "Survival time", "setting": "Plasmodium berghei [4]", "value": "Toxic in 5 of 5 mice"}, {"measurement": "Survival time", "setting": "Plasmodium berghei [7]", "value": "Toxic in 3 of 5 mice"}]}
{"smiles": "C/C(=N\\NC(=S)N(C)C)c1ccccn1", "values": [{"measurement": "Survival time", "setting": "Plasmodium berghei [12]", "value": "Toxic in 5 of 5 mice"}, {"measurement": "Survival time", "setting": "Plasmodium berghei [11]", "value": 0.5, "unit": "days"}]}
{"smiles": "C/C(=N\\NC(=S)N1CCCC1)c1ccccn1", "values": [{"measurement": "Survival time", "setting": "Plasmodium berghei [12]", "value": "Toxic in 5 of 5 mice"}, {"measurement": "Survival time", "setting": "Plasmodium berghei [11]", "value": 8.9, "unit": "days"}, {"measurement": "Survival time", "setting": "Plasmodium berghei [14]", "value": "Toxic in 5 of 5 mice"}]}
{"smiles": "C/C(=N\\N=C(/S)N(C)C1CCCCC1)c1ccccn1", "values": [{"measurement": "Survival time", "setting": "Plasmodium berghei [21]", "value": "Cured 2 of 5 mice"}, {"measurement": "Survival time", "setting": "Plasmodium berghei [16]", "value": 12.1, "unit": "days"}, {"measurement": "Survival time", "setting": "Plasmodium berghei [22]", "value": "Cured 4 of 5 mice"}, {"measurement": "Survival time", "setting": "Plasmodium berghei [11]", "value": 3.7, "unit": "days"}, {"measurement": "Survival time", "setting": "Plasmodium berghei [18]", "value": 9.6, "unit": "days"}]}
{"smiles": "C/C(=N\\N=C(/S)NCc1ccccc1)c1ccccn1", "values": [{"measurement": "Survival time", "setting": "Plasmodium berghei [11]", "value": 0.5, "unit": "days"}, {"measurement": "Survival time", "setting": "Plasmodium berghei [23]", "value": 3.7, "unit": "days"}, {"measurement": "Survival time", "setting": "Plasmodium berghei [24]", "value": 10.6, "unit": "days"}]}
{"smiles": "C/C(=N\\N=C(/[SeH])N1CCCCCC1)c1ccccn1", "values": [{"measurement": "Survival time", "setting": "Plasmodium berghei [11]", "value": 1.7, "unit": "days"}, {"measurement": "Survival time", "setting": "Plasmodium berghei [18]", "value": 4.6, "unit": "days"}, {"measurement": "Survival time", "setting": "Plasmodium berghei [23]", "value": 7.3, "unit": "days"}, {"measurement": "Survival time", "setting": "Plasmodium berghei [25]", "value": "Cured 2 of 5 mice"}, {"measurement": "Survival time", "setting": "Plasmodium berghei [26]", "value": "Cured 2 of 5 mice"}]}
